Experimental findings from EP4722207A1, “OXOISOINDOLINYL-SUBSTITUTED TETRAHYDROPYRIMIDINEDIONE DERIVATIVE AND USE THEREOF” (Gluetacs Therapeutics (Shanghai) Co., Ltd., priority 2023, dated 2024) are described below.

Type in all cases: cell-based
What all share (details): compounds at 50 nM and 500 nM, 24 hours

The target of one assay is T1, CK1α (Homo sapiens, UniProt P48729+Q96SW2).
T1 construct: effects of the compounds of the present disclosure on the expression of target proteins in cells; endogenous in cells; host or cells: human PBMCs (hPBMCs)
T1 sequence (P48729 whole entry): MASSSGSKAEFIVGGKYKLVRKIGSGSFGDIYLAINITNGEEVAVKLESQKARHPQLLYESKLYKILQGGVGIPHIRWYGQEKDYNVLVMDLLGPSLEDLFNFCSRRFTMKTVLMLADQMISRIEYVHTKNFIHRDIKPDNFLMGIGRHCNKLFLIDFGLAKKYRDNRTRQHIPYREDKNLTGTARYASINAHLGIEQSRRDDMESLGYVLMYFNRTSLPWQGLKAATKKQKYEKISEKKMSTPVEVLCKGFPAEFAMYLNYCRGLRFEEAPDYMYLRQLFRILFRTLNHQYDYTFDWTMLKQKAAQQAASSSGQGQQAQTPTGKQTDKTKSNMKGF
T1 sequence (Q96SW2 whole entry): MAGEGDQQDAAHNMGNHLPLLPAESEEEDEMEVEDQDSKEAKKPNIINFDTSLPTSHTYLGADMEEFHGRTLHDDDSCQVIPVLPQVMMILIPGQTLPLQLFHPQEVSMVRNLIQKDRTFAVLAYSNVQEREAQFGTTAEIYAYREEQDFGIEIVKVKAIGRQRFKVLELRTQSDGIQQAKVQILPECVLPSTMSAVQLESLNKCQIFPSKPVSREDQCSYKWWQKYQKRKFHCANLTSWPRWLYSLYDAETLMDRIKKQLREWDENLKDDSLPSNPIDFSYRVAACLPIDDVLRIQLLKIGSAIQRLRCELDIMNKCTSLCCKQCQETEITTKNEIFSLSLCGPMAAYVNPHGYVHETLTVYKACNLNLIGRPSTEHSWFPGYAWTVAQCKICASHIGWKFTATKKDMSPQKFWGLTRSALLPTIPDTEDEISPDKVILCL
T1 sequence (Q16531 whole entry partner): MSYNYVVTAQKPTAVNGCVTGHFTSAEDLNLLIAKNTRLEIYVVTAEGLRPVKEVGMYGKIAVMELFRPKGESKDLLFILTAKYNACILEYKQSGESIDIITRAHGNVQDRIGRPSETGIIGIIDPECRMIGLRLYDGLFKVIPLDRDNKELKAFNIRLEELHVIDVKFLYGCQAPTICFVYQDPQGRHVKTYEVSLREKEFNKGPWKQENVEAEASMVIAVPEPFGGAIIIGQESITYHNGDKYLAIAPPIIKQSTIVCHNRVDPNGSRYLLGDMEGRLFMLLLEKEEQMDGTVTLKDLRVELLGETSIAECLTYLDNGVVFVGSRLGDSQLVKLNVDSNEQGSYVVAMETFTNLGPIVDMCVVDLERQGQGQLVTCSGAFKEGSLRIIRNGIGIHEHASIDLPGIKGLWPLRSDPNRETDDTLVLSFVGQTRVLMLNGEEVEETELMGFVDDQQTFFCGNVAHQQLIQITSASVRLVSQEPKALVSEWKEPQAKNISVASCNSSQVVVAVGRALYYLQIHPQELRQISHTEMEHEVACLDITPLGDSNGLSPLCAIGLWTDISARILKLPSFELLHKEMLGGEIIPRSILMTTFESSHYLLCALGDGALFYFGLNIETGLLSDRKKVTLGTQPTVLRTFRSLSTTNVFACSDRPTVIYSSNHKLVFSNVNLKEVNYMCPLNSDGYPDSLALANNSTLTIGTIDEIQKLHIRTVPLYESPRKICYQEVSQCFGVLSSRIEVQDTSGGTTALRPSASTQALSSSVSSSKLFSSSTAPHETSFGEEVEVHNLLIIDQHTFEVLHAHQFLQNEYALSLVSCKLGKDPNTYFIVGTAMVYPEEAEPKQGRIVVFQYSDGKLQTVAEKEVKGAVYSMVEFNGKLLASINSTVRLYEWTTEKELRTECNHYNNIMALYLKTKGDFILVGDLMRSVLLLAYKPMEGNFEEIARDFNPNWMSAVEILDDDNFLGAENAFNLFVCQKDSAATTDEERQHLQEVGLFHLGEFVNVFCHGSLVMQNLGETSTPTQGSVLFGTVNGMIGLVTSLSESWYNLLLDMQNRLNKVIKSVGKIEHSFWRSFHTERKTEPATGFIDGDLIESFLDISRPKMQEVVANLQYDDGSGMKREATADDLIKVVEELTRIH
Kind of assay: Western-blot assay, substrate protein degradation in hPBMCs: CK1α.

The next assay deals with T2, WEE1 (Homo sapiens, UniProt P30291+Q96SW2).
T2 construct: effects of the compounds of the present disclosure on the expression of target proteins in cells; endogenous in cells; host or cells: human PBMCs (hPBMCs)
T2 sequence (P30291 whole entry): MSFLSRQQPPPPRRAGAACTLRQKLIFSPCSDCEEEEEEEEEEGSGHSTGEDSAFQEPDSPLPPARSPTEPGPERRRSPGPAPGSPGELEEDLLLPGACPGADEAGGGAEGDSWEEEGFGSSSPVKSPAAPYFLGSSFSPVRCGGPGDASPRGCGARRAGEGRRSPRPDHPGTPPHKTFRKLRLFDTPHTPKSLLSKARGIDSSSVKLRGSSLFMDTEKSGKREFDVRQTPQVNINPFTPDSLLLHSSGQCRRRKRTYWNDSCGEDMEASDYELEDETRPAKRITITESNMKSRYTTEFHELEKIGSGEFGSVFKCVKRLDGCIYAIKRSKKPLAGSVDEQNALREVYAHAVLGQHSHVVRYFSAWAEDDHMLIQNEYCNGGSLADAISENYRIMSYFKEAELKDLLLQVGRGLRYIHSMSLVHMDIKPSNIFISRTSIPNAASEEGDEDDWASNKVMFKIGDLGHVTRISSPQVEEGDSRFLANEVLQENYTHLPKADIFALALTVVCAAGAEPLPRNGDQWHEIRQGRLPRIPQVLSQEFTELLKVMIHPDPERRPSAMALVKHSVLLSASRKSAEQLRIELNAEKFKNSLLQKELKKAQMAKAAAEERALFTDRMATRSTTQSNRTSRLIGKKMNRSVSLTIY
T2 sequence (Q96SW2 whole entry): as the sequence (Q96SW2 whole entry) above
T2 sequence (Q16531 whole entry partner): as the sequence (Q16531 whole entry partner) above
In words: Western-blot assay, substrate protein degradation in hPBMCs: WEE1.

In a further assay the target is T3, IKZF1 (Homo sapiens, UniProt Q13422+Q96SW2).
T3 construct: effects of the compounds of the present disclosure on the expression of target proteins in cells; endogenous in cells; host or cells: human PBMCs (hPBMCs)
T3 sequence (Q13422 whole entry): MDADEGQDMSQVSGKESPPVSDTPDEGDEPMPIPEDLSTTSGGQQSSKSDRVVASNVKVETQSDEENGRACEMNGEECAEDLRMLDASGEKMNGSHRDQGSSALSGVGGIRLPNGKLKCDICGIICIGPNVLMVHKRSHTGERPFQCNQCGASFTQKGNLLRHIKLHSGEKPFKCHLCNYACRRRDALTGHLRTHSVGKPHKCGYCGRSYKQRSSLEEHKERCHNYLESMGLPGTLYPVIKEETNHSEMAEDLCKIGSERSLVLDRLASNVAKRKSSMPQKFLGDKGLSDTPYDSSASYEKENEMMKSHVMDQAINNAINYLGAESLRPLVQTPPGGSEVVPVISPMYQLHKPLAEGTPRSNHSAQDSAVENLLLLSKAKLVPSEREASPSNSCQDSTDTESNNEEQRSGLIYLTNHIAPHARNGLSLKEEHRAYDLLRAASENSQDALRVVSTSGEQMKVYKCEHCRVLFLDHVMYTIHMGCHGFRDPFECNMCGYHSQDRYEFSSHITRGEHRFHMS
T3 sequence (Q96SW2 whole entry): as the sequence (Q96SW2 whole entry) above
T3 sequence (Q16531 whole entry partner): as the sequence (Q16531 whole entry partner) above
In words: Western-blot assay, substrate protein degradation in hPBMCs: IKZF1.

In a further assay the target is T4, IKZF2 (Homo sapiens, UniProt Q96SW2+Q9UKS7).
T4 construct: effects of the compounds of the present disclosure on the expression of target proteins in cells; endogenous in cells; host or cells: human PBMCs (hPBMCs)
In words: Western-blot assay, substrate protein degradation in hPBMCs: IKZF2.

The target in a further assay is T5, IKZF3 (Homo sapiens, UniProt Q96SW2+Q9UKT9).
T5 construct: effects of the compounds of the present disclosure on the expression of target proteins in cells; endogenous in cells; host or cells: human PBMCs (hPBMCs)
T5 sequence (Q9UKT9 whole entry): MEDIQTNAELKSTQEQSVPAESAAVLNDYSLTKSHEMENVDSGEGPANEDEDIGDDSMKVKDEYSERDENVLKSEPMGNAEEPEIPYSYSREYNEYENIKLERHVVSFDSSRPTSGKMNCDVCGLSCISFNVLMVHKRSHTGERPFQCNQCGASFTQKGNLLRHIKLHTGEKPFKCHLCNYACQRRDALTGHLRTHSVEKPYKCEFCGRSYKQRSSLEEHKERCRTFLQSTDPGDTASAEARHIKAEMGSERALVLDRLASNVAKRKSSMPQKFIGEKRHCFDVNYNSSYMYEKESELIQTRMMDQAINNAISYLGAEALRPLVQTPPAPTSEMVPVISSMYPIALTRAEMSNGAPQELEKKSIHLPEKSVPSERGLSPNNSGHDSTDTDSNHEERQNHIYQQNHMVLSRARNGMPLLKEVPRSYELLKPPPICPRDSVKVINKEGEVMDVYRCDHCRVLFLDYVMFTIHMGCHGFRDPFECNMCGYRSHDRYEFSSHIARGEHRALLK
T5 sequence (Q96SW2 whole entry): as the sequence (Q96SW2 whole entry) above
T5 sequence (Q16531 whole entry partner): as the sequence (Q16531 whole entry partner) above
In words: Western-blot assay, substrate protein degradation in hPBMCs: IKZF3.

A further assay has as its target T6, GSPT1 (Homo sapiens, UniProt P15170+Q96SW2).
T6 construct: effects of the compounds of the present disclosure on the expression of target proteins in cells; endogenous in cells; host or cells: human PBMCs (hPBMCs)
Kind of assay: Western-blot assay, substrate protein degradation in hPBMCs: GSPT1.

T6 sequence (P15170 whole entry): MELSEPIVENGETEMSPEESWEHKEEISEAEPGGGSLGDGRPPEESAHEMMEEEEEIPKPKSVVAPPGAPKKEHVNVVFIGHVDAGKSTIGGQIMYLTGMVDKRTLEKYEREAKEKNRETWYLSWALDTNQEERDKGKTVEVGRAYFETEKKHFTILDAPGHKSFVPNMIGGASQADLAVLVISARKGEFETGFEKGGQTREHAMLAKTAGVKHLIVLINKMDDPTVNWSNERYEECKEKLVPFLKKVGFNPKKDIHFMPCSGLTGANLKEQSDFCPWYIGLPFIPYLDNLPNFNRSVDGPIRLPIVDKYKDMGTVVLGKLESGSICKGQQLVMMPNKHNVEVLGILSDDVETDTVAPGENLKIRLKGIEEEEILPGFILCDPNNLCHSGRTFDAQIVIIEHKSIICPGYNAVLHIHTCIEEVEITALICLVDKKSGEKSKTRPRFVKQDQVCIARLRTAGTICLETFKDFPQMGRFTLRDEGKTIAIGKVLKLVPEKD
T6 sequence (Q96SW2 whole entry): as the sequence (Q96SW2 whole entry) above
T6 sequence (Q16531 whole entry partner): as the sequence (Q16531 whole entry partner) above

Regarding `O=C1CCN(N2C(=O)c3ccc(CN4CC=C(c5cccc(Cl)c5Cl)CC4)cc3C2=O)C(=O)N1` [GT-05249, 5-((4-(2,3-dichlorophenyl)-3,6-dihydropyridin-1(2H)-yl)methyl)-2-(2,4-dioxotetrahydropyrimidin-1(2H)-yl)isoindoline-1,3-dione], the “CK1α substrate protein remaining %” value on CK1α is recorded as “B ("B" is defined as 80%< substrate protein remaining %≤ 100%)”. In addition, the “WEE1 substrate protein remaining %” value at WEE1 is recorded as “B ("B" is defined as 80%< substrate protein remaining %≤ 100%)”. Moreover, the “IKZF1 substrate protein remaining %” value on IKZF1 is given as “A ("A" is defined as 0% ≤ substrate protein remaining % ≤ 80%)”. Further, the “IKZF2 substrate protein remaining %” value at IKZF2 was “B ("B" is defined as 80%< substrate protein remaining %≤ 100%)”. The “IKZF3 substrate protein remaining %” value at IKZF3 is recorded as “B ("B" is defined as 80%< substrate protein remaining %≤ 100%)”. Besides, on GSPT1, the “GSPT1 substrate protein remaining %” value is “A ("A" is defined as 0% ≤ substrate protein remaining % ≤ 80%)”.
Turning to `O=C1CCN(N2C(=O)c3ccc(CN4CCC(c5cccc(Cl)c5Cl)CC4)cc3C2=O)C(=O)N1` [GT-05250, 5-((4-(2,3-dichlorophenyl)piperidin-1-yl)methyl)-2-(2,4-dioxotetrahydropyrimidin-1(2H)-yl)isoindoline-1,3-dione], on CK1α, the “CK1α substrate protein remaining %” value is on record as “B ("B" is defined as 80%< substrate protein remaining %≤ 100%)”. Moreover, the “WEE1 substrate protein remaining %” value at WEE1 is given as “B ("B" is defined as 80%< substrate protein remaining %≤ 100%)”. Also, the “IKZF1 substrate protein remaining %” value on IKZF1 is “B ("B" is defined as 80%< substrate protein remaining %≤ 100%)”. In addition, at IKZF2, the “IKZF2 substrate protein remaining %” value was “A ("A" is defined as 0% ≤ substrate protein remaining % ≤ 80%)”. Moreover, the “IKZF3 substrate protein remaining %” value on IKZF3 was “B ("B" is defined as 80%< substrate protein remaining %≤ 100%)”. At GSPT1, the “GSPT1 substrate protein remaining %” value is recorded as “B ("B" is defined as 80%< substrate protein remaining %≤ 100%)”.
Consider `O=C1CCN(N2C(=O)c3ccc(CN4C5CC4CN(c4cccc(Cl)c4Cl)C5)cc3C2=O)C(=O)N1` [GT-05251, 5-((3-(2,3-dichlorophenyl)-3,6-diazabicyclo[3.1.1]heptan-6-yl)methyl)-2-(2,4-dioxotetrahydropyrimidin-1(2H)-yl)isoindoline-1,3-dione], for which, at CK1α, the “CK1α substrate protein remaining %” value is on record as “B ("B" is defined as 80%< substrate protein remaining %≤ 100%)”. Also, the “WEE1 substrate protein remaining %” value at WEE1 is listed as “B ("B" is defined as 80%< substrate protein remaining %≤ 100%)”. In addition, the “IKZF1 substrate protein remaining %” value on IKZF1 was “B ("B" is defined as 80%< substrate protein remaining %≤ 100%)”. For the same compound, the “IKZF2 substrate protein remaining %” value at IKZF2 is listed as “A ("A" is defined as 0% ≤ substrate protein remaining % ≤ 80%)”. Further, on IKZF3, the “IKZF3 substrate protein remaining %” value was “B ("B" is defined as 80%< substrate protein remaining %≤ 100%)”. For the same compound, the “GSPT1 substrate protein remaining %” value at GSPT1 is reported as “B ("B" is defined as 80%< substrate protein remaining %≤ 100%)”.
With `O=C1CCN(N2C(=O)c3ccc(CN4CCn5c(nnc5C(F)(F)F)C4)cc3C2=O)C(=O)N1` [GT-05253, 2-(2,4-dioxotetrahydropyrimidin-1(2H)-yl)-5-((3-(trifluoromethyl)-5,6-dihydro-[1,2,4]triazolo[4,3-a]pyrazin-7(8H)-yl)methyl)isoindoline-1,3-dione], the “CK1α substrate protein remaining %” value on CK1α is “B ("B" is defined as 80%< substrate protein remaining %≤ 100%)”. At WEE1, the “WEE1 substrate protein remaining %” value is “B ("B" is defined as 80%< substrate protein remaining %≤ 100%)”. The “IKZF1 substrate protein remaining %” value on IKZF1 was “B ("B" is defined as 80%< substrate protein remaining %≤ 100%)”. For the same compound, the “IKZF2 substrate protein remaining %” value on IKZF2 is listed as “B ("B" is defined as 80%< substrate protein remaining %≤ 100%)”. Further, the “IKZF3 substrate protein remaining %” value at IKZF3 is given as “B ("B" is defined as 80%< substrate protein remaining %≤ 100%)”. The “GSPT1 substrate protein remaining %” value at GSPT1 is on record as “A ("A" is defined as 0% ≤ substrate protein remaining % ≤ 80%)”.
Turning to `O=C1CCN(N2C(=O)c3ccc(CN4CCc5sccc5C4)cc3C2=O)C(=O)N1` [GT-05254, 5-((6,7-dihydrothieno[3,2-c]pyridin-5(4H)-yl)methyl)-2-(2,4-dioxotetrahydropyrimidin-1(2H)-yl)isoindoline-1,3-dione], the “CK1α substrate protein remaining %” value at CK1α is reported as “B ("B" is defined as 80%< substrate protein remaining %≤ 100%)”. Moreover, the “WEE1 substrate protein remaining %” value at WEE1 is recorded as “B ("B" is defined as 80%< substrate protein remaining %≤ 100%)”. The “IKZF1 substrate protein remaining %” value at IKZF1 is recorded as “B ("B" is defined as 80%< substrate protein remaining %≤ 100%)”. Moreover, at IKZF2, the “IKZF2 substrate protein remaining %” value is “B ("B" is defined as 80%< substrate protein remaining %≤ 100%)”. Also, the “IKZF3 substrate protein remaining %” value at IKZF3 was “B ("B" is defined as 80%< substrate protein remaining %≤ 100%)”. Besides, on GSPT1, the “GSPT1 substrate protein remaining %” value is on record as “A ("A" is defined as 0% ≤ substrate protein remaining % ≤ 80%)”.
Regarding `O=C1CCN(N2C(=O)c3ccc(CN4CCC(c5c[nH]c6cc(F)ccc56)CC4)cc3C2=O)C(=O)N1` [GT-05259, 2-(2,4-dioxotetrahydropyrimidin-1(2H)-yl)-5-((4-(6-fluoro-1H-indol-3-yl)piperidin-1-yl)methyl)isoindoline-1,3-dione], on CK1α, the “CK1α substrate protein remaining %” value is reported as “B ("B" is defined as 80%< substrate protein remaining %≤ 100%)”. Moreover, the “WEE1 substrate protein remaining %” value at WEE1 is reported as “B ("B" is defined as 80%< substrate protein remaining %≤ 100%)”. The “IKZF1 substrate protein remaining %” value at IKZF1 was “A ("A" is defined as 0% ≤ substrate protein remaining % ≤ 80%)”. The “IKZF2 substrate protein remaining %” value at IKZF2 was “A ("A" is defined as 0% ≤ substrate protein remaining % ≤ 80%)”. Besides, the “IKZF3 substrate protein remaining %” value on IKZF3 is listed as “B ("B" is defined as 80%< substrate protein remaining %≤ 100%)”. The “GSPT1 substrate protein remaining %” value at GSPT1 was “A ("A" is defined as 0% ≤ substrate protein remaining % ≤ 80%)”.
`O=C1CCN(N2C(=O)c3ccc(CN4CCC(N5CCc6cc(F)ccc65)CC4)cc3C2=O)C(=O)N1` [GT-05260, 2-(2,4-dioxotetrahydropyrimidin-1(2H)-yl)-5-((4-(5-fluoroindolin-1-yl)piperidin-1-yl)methyl)isoindoline-1,3-dione]: the “CK1α substrate protein remaining %” value on CK1α is reported as “B ("B" is defined as 80%< substrate protein remaining %≤ 100%)”. Moreover, the “WEE1 substrate protein remaining %” value on WEE1 was “A ("A" is defined as 0% ≤ substrate protein remaining % ≤ 80%)”. For the same compound, the “IKZF1 substrate protein remaining %” value at IKZF1 is listed as “A ("A" is defined as 0% ≤ substrate protein remaining % ≤ 80%)”. The “IKZF2 substrate protein remaining %” value at IKZF2 is “A ("A" is defined as 0% ≤ substrate protein remaining % ≤ 80%)”. In addition, the “IKZF3 substrate protein remaining %” value at IKZF3 was “B ("B" is defined as 80%< substrate protein remaining %≤ 100%)”. Besides, the “GSPT1 substrate protein remaining %” value at GSPT1 is given as “B ("B" is defined as 80%< substrate protein remaining %≤ 100%)”.
As for `O=C1CCN(N2C(=O)c3ccc(CN4CC=C(c5ccnc6cc(F)ccc56)CC4)cc3C2=O)C(=O)N1` [GT-05261, 2-(2,4-dioxotetrahydropyrimidin-1(2H)-yl)-5-((4-(7-fluoroquinolin-4-yl)-3,6-dihydropyridin-1(2H)-yl)methyl)isoindoline-1,3-dione], the “CK1α substrate protein remaining %” value at CK1α is on record as “B ("B" is defined as 80%< substrate protein remaining %≤ 100%)”. Further, the “WEE1 substrate protein remaining %” value at WEE1 is listed as “B ("B" is defined as 80%< substrate protein remaining %≤ 100%)”. In addition, the “IKZF1 substrate protein remaining %” value on IKZF1 is on record as “B ("B" is defined as 80%< substrate protein remaining %≤ 100%)”. For the same compound, the “IKZF2 substrate protein remaining %” value on IKZF2 was “A ("A" is defined as 0% ≤ substrate protein remaining % ≤ 80%)”. Moreover, the “IKZF3 substrate protein remaining %” value at IKZF3 is reported as “B ("B" is defined as 80%< substrate protein remaining %≤ 100%)”. The “GSPT1 substrate protein remaining %” value on GSPT1 is reported as “B ("B" is defined as 80%< substrate protein remaining %≤ 100%)”.
For the compound `O=C1CCN(N2C(=O)c3ccc(CN4CCN(C(c5ccccc5)c5ccccc5)CC4)cc3C2=O)C(=O)N1` [GT-05267, 5-((4-benzhydrylpiperazin-1-yl)methyl)-2-(2,4-dioxotetrahydropyrimidin-1(2H)-yl)isoindoline-1,3-dione], the “CK1α substrate protein remaining %” value at CK1α is “A ("A" is defined as 0% ≤ substrate protein remaining % ≤ 80%)”. In addition, the “WEE1 substrate protein remaining %” value on WEE1 is recorded as “B ("B" is defined as 80%< substrate protein remaining %≤ 100%)”. Also, the “IKZF1 substrate protein remaining %” value on IKZF1 is “B ("B" is defined as 80%< substrate protein remaining %≤ 100%)”. Moreover, on IKZF2, the “IKZF2 substrate protein remaining %” value is given as “B ("B" is defined as 80%< substrate protein remaining %≤ 100%)”. Further, on IKZF3, the “IKZF3 substrate protein remaining %” value was “A ("A" is defined as 0% ≤ substrate protein remaining % ≤ 80%)”. Also, the “GSPT1 substrate protein remaining %” value on GSPT1 is listed as “A ("A" is defined as 0% ≤ substrate protein remaining % ≤ 80%)”.
Take `O=C1CCN(N2C(=O)c3ccc(CN4CCN(C(c5ccc(F)cc5)c5ccc(F)cc5)CC4)cc3C2=O)C(=O)N1` [GT-05268, 5-((4-(bis(4-fluorophenyl)methyl)piperazin-1-yl)methyl)-2-(2,4-dioxotetrahydropyrimidin-1(2H)-yl)isoindoline-1,3-dione]: the “CK1α substrate protein remaining %” value on CK1α is “A ("A" is defined as 0% ≤ substrate protein remaining % ≤ 80%)”. Besides, the “WEE1 substrate protein remaining %” value at WEE1 is recorded as “B ("B" is defined as 80%< substrate protein remaining %≤ 100%)”. In addition, on IKZF1, the “IKZF1 substrate protein remaining %” value is recorded as “B ("B" is defined as 80%< substrate protein remaining %≤ 100%)”. Further, the “IKZF2 substrate protein remaining %” value on IKZF2 is “B ("B" is defined as 80%< substrate protein remaining %≤ 100%)”. In addition, the “IKZF3 substrate protein remaining %” value at IKZF3 was “A ("A" is defined as 0% ≤ substrate protein remaining % ≤ 80%)”. On GSPT1, the “GSPT1 substrate protein remaining %” value was “A ("A" is defined as 0% ≤ substrate protein remaining % ≤ 80%)”.
